pIC50: −log10 of the molar value. Counter-ions that a name gives are not always drawn.
Tests used:
Type in all cases: biochemical
Recombinant human MAO-B = Recombinant human MAO-B (Homo sapiens (Human), UniProt P27338); test: Inhibition of human recombinant MAO-B; settings: benzylamine 100 μM
Procedure, shortened: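 Recombinant human MAO-B used as enzyme source (0.06 mg/mL, stated concentration). Run as for the human SSAO/VAP-1 assay, except benzylamine substrate at 100 μM.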

Bovine LOX = Bovine LOX (Bos taurus (Bovine), UniProt P33072); test: LOX inhibition, peroxidase-coupled Amplex Red amine oxidase assay; settings: 30 min preincubation at 37° C., putrescine substrate
Procedure, shortened: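 Bovine LOX in 1.2 M urea, 50 mM sodium borate pH 8.2 with 1 μM mofegiline and 0.5 mM pargyline; putrescine at twice KM (e.g. 20 mM for LOX) with Amplex Red/HRP. Fluorescence (ex 565/em 590 nm) read kinetically over 30 min at 37–45 °C; IC50 from slopes.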

[1] = target: human recombinant SSAO/VAP-1 (Homo sapiens (Human), UniProt Q16853); test: Inhibition of human recombinant SSAO/VAP-1 amine oxidase activity; settings: 30 min preincubation at 37° C., 600 μM benzylamine
Procedure, shortened: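 Purified SSAO/VAP-1 (residues 34-763, expressed in CHO Lec 8 cells; 0.25 μg/mL) preincubated 30 min at 37° C with compound in 0.1 M sodium phosphate pH 7.4. Reaction mix of 600 μM benzylamine, 120 μM Amplex Red and 1.5 U/mL HRP added; fluorescence (ex 565/em 590 nm) read every 2.5 min for 30 min; IC50 from kinetic slopes over 4-11 point curves.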

Chain of human recombinant SSAO/VAP-1 (Q16853 34-763): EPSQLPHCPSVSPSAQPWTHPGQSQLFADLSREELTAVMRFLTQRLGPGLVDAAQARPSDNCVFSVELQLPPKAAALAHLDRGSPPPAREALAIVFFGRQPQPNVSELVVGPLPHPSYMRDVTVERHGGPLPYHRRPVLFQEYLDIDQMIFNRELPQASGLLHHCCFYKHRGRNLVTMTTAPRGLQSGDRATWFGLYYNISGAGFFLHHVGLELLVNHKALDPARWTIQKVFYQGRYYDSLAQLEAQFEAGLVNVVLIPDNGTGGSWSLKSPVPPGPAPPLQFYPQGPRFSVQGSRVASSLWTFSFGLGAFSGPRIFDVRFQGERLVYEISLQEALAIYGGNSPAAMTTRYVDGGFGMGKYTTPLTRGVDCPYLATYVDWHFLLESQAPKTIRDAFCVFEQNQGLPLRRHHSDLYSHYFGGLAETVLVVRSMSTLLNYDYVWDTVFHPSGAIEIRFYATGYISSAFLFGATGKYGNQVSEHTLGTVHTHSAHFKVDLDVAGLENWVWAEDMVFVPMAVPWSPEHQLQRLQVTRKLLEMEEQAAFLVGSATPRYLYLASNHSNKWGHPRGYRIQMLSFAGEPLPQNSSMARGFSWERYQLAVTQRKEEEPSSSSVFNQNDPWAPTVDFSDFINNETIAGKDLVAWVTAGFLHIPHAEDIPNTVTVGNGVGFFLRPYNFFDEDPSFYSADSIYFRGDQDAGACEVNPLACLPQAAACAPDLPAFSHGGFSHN
Chain of Recombinant human MAO-B (P27338 whole entry): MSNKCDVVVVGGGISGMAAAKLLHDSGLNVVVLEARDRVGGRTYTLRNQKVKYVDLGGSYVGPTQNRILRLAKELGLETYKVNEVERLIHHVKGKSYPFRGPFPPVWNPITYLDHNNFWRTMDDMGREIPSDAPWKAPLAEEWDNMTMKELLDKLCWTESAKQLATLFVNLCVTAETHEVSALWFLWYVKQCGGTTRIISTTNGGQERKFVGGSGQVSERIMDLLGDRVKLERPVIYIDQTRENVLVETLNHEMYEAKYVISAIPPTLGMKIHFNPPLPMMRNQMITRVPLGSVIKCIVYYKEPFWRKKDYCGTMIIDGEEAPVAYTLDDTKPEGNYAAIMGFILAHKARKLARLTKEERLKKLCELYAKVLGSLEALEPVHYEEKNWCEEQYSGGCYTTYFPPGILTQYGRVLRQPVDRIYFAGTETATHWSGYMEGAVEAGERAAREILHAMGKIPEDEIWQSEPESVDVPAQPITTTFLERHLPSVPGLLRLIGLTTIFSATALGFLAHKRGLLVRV
Chain of Bovine LOX (P33072 170-418): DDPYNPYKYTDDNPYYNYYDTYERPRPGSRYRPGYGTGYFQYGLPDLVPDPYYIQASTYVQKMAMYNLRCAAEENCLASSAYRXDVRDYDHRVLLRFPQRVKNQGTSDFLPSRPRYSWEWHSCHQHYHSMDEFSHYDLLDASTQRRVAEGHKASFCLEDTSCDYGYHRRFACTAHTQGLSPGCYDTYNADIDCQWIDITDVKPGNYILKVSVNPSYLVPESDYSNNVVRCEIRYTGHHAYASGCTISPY

Row | SMILES | pIC50 (Recombinant human MAO-B) | pIC50 (Bovine LOX) | pIC50 [1]
1 | Cc1ccc2c(n1)c(-c1cccc(S(C)(=O)=O)c1)c(C)n2C/C(F)=C/CN [Compound 112, (Z)-4-(2,5-dimethyl-3-(3-(methylsulfonyl)phenyl)-1H-pyrrolo[3,2-b]pyridin-1-yl)-3-fluorobut-2-en-1-amine Dihydrochloride] | < 5.52 | < 6.52 | < 5.52
2 | CCOC(=O)c1ccc2c(c1)c(-c1cccc(S(=O)(=O)N(C)C)c1)c(C)n2C/C(F)=C/CN [Compound 12, (Z)-ethyl 1-(4-amino-2-fluorobut-2-en-1-yl)-3-(3-(N,N-dimethylsulfamoyl)phenyl)-2-methyl-1H-indole-5-carboxylate] | < 5.52 | < 6.52 | < 5.52
3 | Cc1c(-c2cccc(S(=O)(=O)N(C)C)c2)c2ncccc2n1C/C(F)=C/CN [Compound 25, (Z)-3-(1-(4-amino-2-fluorobut-2-en-1-yl)-2-methyl-1H-pyrrolo[3,2-b]pyridin-3-yl)-N,N-dimethylbenzenesulfonamide Dihydrochloride] | < 5.52 | < 6.52 | < 5.52

Source: patent publication US10717733B2, “Haloallylamine indole and azaindole derivative inhibitors of lysyl oxidases and uses thereof” (PHARMAXIS LTD., priority 2016, dated 2020)
